Assay results as given in patent US5045566A, “Novel imidate insecticides” (ICI Americas Inc., priority 1989, dated 1991).

Assays:
Assay type in all cases: in vivo
[1] = tested on: Housefly [Musca domestica]; assay: Housefly contact mortality in dishes (HF), 48 hours; details: μg of test compound per 25 female flies
Method in brief: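 Dose range started at 100 μg per 25 female flies and went downward. Insects (1-2 days old) contacted a dried acetone/peanut-oil deposit in dishes; LC50 values come from dosage-mortality curves at 48 h.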

[2] = tested on: Black Bean Aphid [Aphis fabae (Scop.)]; assay: Black bean aphid spray test on nasturtium (BBA), 48 hours; details: percent of test compound in sprayed solution
Method in brief: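 LC50, given as percent test compound in the sprayed liquid, was calculated from dosage-mortality curves using concentrations from 0.05% downward. Sprays in 50:50 acetone-water went to runoff on ~5 cm nasturtiums carrying 25-50 aphids of mixed ages, one day after infestation. Deaths were counted 48 h later under greenhouse conditions.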

[3] = tested on: Cabbage Looper [Trichoplusia ni (Hubner)]; assay: Cabbage looper leaf dip (CL), 3-5 days; details: percent in solution, second-instar larvae
Method in brief: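 LC50 values, given as percent test compound in solution, were calculated from dosage-mortality curves. Squash cotyledons were immersed 2-3 s in acetone-water (50-50) dilutions starting at 0.1%, dried on a screen, then infested with five second-instar larvae. Mortality was read 3-5 days on.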

[4] = tested on: Aster Leafhopper [Macrosteles fascifrens (Stal)]; assay: Aster leafhopper on dipped oat seedlings (LH), 48 hours; details: percent in solution, adults/nymphs
Method in brief: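 Three ~10 cm oat seedlings per cup were dipped 2-3 seconds in 50-50 acetone-water compound solutions, dried, and caged with ten adult/nymph leafhoppers. Mortality was counted after 48 hours at concentrations from 0.05% downward. LC50, as percent compound in solution, came from dosage-mortality curves.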

[5] = tested on: Beet Armyworm (Spodoptera exigua); assay: Beet armyworm leaf dip (BAW), 5 days; details: percent in solution; second-instar larvae; five days
Method: (§1) The compounds in Tables 1 and 2 above were tested for insecticidal activity using the following testing procedures. LC50 values, based on the results of these tests and calculated according to dosage-mortality curves, are expressed in Table 3.
Beet Armyworm (Spodoptera exigua):
Test compounds were diluted in a 50-50 acetone-water solution. Young leaves of sugar beets (Beta vulgaris) were immersed in the test solutions for 2-3 seconds and placed on a wire screen to dry. The dried leaves were placed in petri dishes containing a moistened filter paper and infested with five second-instar beet armyworm larvae. The dishes were placed in a high humidity chamber. Mortality of the larvae was recorded five days later. Test concentrations ranged from 0.1% downward. The LC-50 values are expressed below in Table 3 under the heading "BAW" in terms of percent of the test compound in solution.

[6] = tested on: Tobacco Budworm [Heliothis virescens (Fabricius)] eggs; assay: Tobacco budworm eggs (TBW-E); details: percent in solution; 2-day old eggs
Method in brief: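 2-day eggs on paper towel, acetone dip, 0.1% and below; petri dish with larval diet, 78° F. Mortality read after control hatch and larval feeding. LC50 = % compound in solution, from dose-mortality curve.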

[7] = tested on: Maize weevil [Sitophilus zeamais (Motschulsky)]; assay: Maize weevil on dipped corn seeds (MW), 48 hours; details: percent in solution, adult weevils
Method in brief: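 LC50, given as percent of compound in dipping solution, comes from dosage-mortality curves over concentrations descending from 0.01%. Four corn seeds soaked 2-3 s in 50:50 acetone:water solution were dried and held with 10 adult weevils, about 25° C, mortality read after 48 h.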

[8] = tested on: Tobacco Budworm [Heliothis virescens (Fabricius)] larvae; assay: Tobacco budworm larvae, contact (TBW-C), 5 days; details: percent in solution, second-instar larvae
Method: as §1
Tobacco Budworm [Heliothis virescens (Fabricius)]:
(a) Contact: Test compounds were diluted in a 50-50 acetone-water solution. Cotton (Gossypium sp.) cotyledons were immersed in the test solutions for 2-3 seconds and placed on a wire screen to dry. The dried leaves were placed in petri dishes containing a moistened piece of filter paper and infested with 5 second-instar tobacco budworm larvae. The dishes were placed in a high humidity chamber for 5 days, and percent mortality of the larvae recorded. Test concentrations ranged from 0.1% downward. The LC-50 values are expressed below in Table 3 under the heading "TBW-C" in terms of percent of the test compound in the solution.

SMILES | LC50 HF [1] [µg] | LC50 BBA [2] [%] | LC50 CL [3] [%] | LC50 LH [4] [%] | LC50 BAW [5] [%] | LC50 TBW E (eggs) [6] [%] | LC50 MW [7] [%] | LC50 TBW C (contact) [8] [%]
CC(C)C(=Nc1cccc(Cl)c1)OCc1cccc(Oc2ccccc2)c1 [Compound 7] | 8 | 0.0003 | 0.006 | 0.0002 | 0.006 | 0.009 |  | 
CC(C)C(=Nc1ccc(Cl)c(Cl)c1)OCc1cccc(Oc2ccccc2)c1 [Compound 14] | 40 | 0.0003 | 0.004 | 0.001 | 0.005 |  | 0.01 | 
CC(C)C(=Nc1ccc(Cl)cc1)OCc1ccc(F)c(Oc2ccccc2)c1 [Compound 23] | 5 | 0.001 | 0.0005 |  | 0.001 | 0.017 |  | 
Clc1ccc(N=C(OCc2cccc(Oc3ccccc3)c2)C2CC2)cc1 [Compound 32] | 37 | 0.003 | 0.003 | > 0.05 | 0.03 |  | > 0.01 | 
Fc1ccc(N=C(OCc2cccc(Oc3ccccc3)c2)C2CC2)cc1 [Compound 45] | 30 | 0.03 | 0.03 | > 0.05 | 0.1 |  |  | 
CC(C)C(=Nc1ccc(F)cc1)OCc1cccc(Oc2ccccc2)c1 [Compound 46] | 7 | 0.003 | 0.003 | 0.002 | 0.006 | 0.016 |  | 
FC(F)(F)c1ccc(N=C(OCc2cccc(Oc3ccccc3)c2)C2CC2)cc1 [Compound 62] | 20 | 0.001 | 0.005 | > 0.05 | 0.02 |  | > 0.01 | 
FC(F)(F)Oc1ccc(N=C(OCc2cccc(Oc3ccccc3)c2)C2CC2)cc1 [Compound 63] | 30 | 0.0003 | 0.005 | 0.0001 | 0.005 |  | > 0.01 | 
FC(F)(F)c1ccc(N=C(OCc2cccc(Oc3ccccc3)c2)C2CC2)c(Cl)c1 [Compound 65] | > 100 | > 0.05 | < 0.01 | > 0.05 | > 0.1 |  |  | 
CC(C)C(=Nc1cccc(C(F)(F)F)c1)OCc1cccc(Oc2ccccc2)c1 [Compound 67] | 15 | 0.0002 | 0.001 | 0.00027 | 0.006 | 0.01 |  | 
O=[N+]([O-])c1cccc(N=C(OCc2cccc(Oc3ccccc3)c2)C(Cl)Cl)c1 [Compound 174] | 17 | 0.05 | 0.03 |  | 0.1 | > 0.1 |  | 
CC(C)C(=Nc1ccc(F)c(Cl)c1)OCc1cccc(Oc2ccc(Br)cc2)c1 [Compound 238] | 25 | 0.003 | 0.0002 | > 0.05 |  | 0.05 | > 0.01 | 0.0004
CC(C)C(=Nc1ccc(F)c(Br)c1)OCc1cccc(Oc2ccc(F)cc2)c1 [Compound 253] | 10 | 0.002 | 0.00013 | 0.003 |  | > 0.1 | > 0.01 | 0.0005
CC(C)C(=Nc1ccc(F)c(Cl)c1)OCc1cccc(Oc2ccccc2)n1 [Compound 462] | 7 | 0.001 | 0.001 | 0.001 |  | 0.04 | > 0.05 | 0.0025
C#CCc1c(F)c(F)c(COC(=Nc2ccc(F)c(Cl)c2)C(C)C)c(F)c1F [Compound 520] | 5.5 | 0.0002 | > 0.1 | 0.0003 |  | > 0.1 | 0.0042 | 0.00075
CC(C)C(=Nc1ccc(F)c(Cl)c1F)OCc1cccc(Oc2ccc(F)cc2)n1 [Compound 521] | 7.5 | 0.0008 | 0.00005 | 0.05 |  | > 0.1 | 0.01 | 0.0005
CC(C)C(=Nc1ccc(Cl)c(Cl)c1)OCc1cccc(Oc2ccc(Cl)cc2)n1 [Compound 523] | 22 | 0.001 | 0.00015 | > 0.05 |  | > 0.1 | > 0.01 | 0.0002
CC(C)C(=Nc1ccc(C(F)(F)F)cc1)OCc1cccc(Oc2ccc(Cl)cc2)n1 [Compound 530] | 9.8 | 0.0003 | 0.00027 | 0.05 |  | 0.005 | > 0.01 | 0.00005
CC(C)C(=Nc1ccc(F)c(Cl)c1)OCc1cccc(Oc2ccc(F)c(F)c2)n1 [Compound 531] | 5 | > 0.05 | > 0.1 | > 0.05 |  | > 0.1 | > 0.01 | 0.00037
